The values that follow are results of earlier work, collected in patent publication US20020132846A1, “Use of gamma substituted gamma-butyrolactones to increase levels of their corresponding substituted gamma-hydroxybutyrate derivatives in humans” (priority 2001, published 2002).

The conditions of series [1]: used according to prescribed dosing levels and schedules.
In a further series the test system is lactonase. Conditions: oral ingestion, lactonase catalyzed hydrolysis; reference (7).

Turning to `O=C(O)CCCO` [gamma-hydroxybutyrate], the “physical or psychological addiction” value in series [1] was “no reports of physical or psychological addiction”.

Consider `CC(O)CCC(=O)O` (stereo not shown) [4-methyl substituted gamma-hydroxybutyrate], for which the “affinity for the GHB receptor” value with GHB receptor (compared with gamma-hydroxybutyrate itself) is given as “greater affinity than gamma-hydroxybutyrate itself”. The “more potent at the receptor than gamma-hydroxybutyrate itself” value in the series with GHB receptor (relative to gamma-hydroxybutyrate, reference (8)) was 15%.

For the compound `O=C1CCCO1` [gamma-butyrolactone], the “formation of the parent compound gamma-hydroxybutyrate” value with lactonase is on record as “rapidly forms the parent compound”.
